Patent publication US10975068B2, “6-aminopyridin-3-yl thiazoles as modulators of RORγT” (Janssen Pharmaceutica NV, priority 2016, dated 2021)
Where two headings read alike, the source gives them in different places.

Columns and labels:
full-length human RORγt = full-length human RORγt (Homo sapiens (Human), UniProt P51449); test: RORγt (full-length human) reporter assay, Conditions B or C; type: cell-based; settings: for inhibition at 3 µM: at 3 μM compound concentration; for IC50: read-out: RORγt (FL) Reporter Assay B or C, IC50; for RORγt (FL) Reporter Assay B or C, % inhibition (value marked *): marked *: footnote not given; for inhibition at 6 µM: read-out: RORγt (FL) Reporter Assay B or C, % inhibition @ 6 μM, Conditions B or C
full-length human RORγt, sequence (P51449 other isoform, or with tags, fused parts or gaps): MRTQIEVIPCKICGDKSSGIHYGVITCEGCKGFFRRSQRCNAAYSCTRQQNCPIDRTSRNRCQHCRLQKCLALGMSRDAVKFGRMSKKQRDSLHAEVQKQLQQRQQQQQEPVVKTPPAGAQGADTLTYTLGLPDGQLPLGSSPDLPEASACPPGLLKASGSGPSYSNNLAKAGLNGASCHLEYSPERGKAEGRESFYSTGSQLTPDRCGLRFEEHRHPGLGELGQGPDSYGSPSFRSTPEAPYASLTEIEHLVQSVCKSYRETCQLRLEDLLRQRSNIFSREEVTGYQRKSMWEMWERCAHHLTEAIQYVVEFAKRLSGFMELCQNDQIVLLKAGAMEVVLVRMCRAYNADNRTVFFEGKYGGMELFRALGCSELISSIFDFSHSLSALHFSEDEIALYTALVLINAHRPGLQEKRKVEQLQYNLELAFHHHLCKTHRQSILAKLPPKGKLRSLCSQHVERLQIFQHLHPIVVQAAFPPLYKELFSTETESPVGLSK
Method in brief: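 Readout is dual luciferase: firefly (GAL4-driven) normalized to DMSO-only and saturating-reference controls, then to CMV-Renilla. Full-length human RORγt fused to GAL4-DBD was transiently expressed in HEK293T; compound exposure ran overnight (16-20 h) starting 4-6 h after transfection, final FBS 1.3%, DMSO 0.1%.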

[1] = target: human RORγt ligand binding domain (RORγt LBD) (Homo sapiens (Human), UniProt P51449); test: RORγt ThermoFluor® assay (thermal shift binding); settings: read-out: ThermoFluor® Assay, Kd
human RORγt ligand binding domain (RORγt LBD), sequence (P51449 other isoform, or with tags, fused parts or gaps): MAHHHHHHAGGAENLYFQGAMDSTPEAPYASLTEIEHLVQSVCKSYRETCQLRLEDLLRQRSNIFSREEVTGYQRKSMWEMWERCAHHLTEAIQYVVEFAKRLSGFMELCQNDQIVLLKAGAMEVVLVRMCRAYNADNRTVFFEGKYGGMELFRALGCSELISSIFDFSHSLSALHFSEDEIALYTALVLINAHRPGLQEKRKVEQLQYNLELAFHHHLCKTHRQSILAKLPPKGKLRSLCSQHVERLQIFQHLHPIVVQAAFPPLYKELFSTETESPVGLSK
Method in brief: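 Binding was inferred from thermal stabilisation (ΔTm) of the E. coli-expressed RORγt LBD (0.065 mg/mL), monitored by 1,8-ANS (60 μM) emission at 500 nm during a 1 °C/min ramp. Buffer was Hepes 100 mM pH 7.0 with NaCl, GSH and Tween-20.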

[2] = read-out: RORγt (FL) Reporter Assay B or C, % inhibition

Compound | inhibition at 3 µM (full-length human RORγt; [2]) [%] | IC50 (full-length human RORγt) [nM] | Kd [1] [nM] | RORγt (FL) Reporter Assay B or C, % inhibition (value marked *) (full-length human RORγt; Conditions B or C) | IC50 (full-length human RORγt; Conditions B or C) [nM] | inhibition at 6 µM (full-length human RORγt) [%] | inhibition at 1 µM (full-length human RORγt; at 1 μM compound concentration, read-out: RORγt (FL) Reporter Assay B or C, % inhibition) [%] | RORγt (FL) Reporter Assay B or C, % inhibition (value marked ***) (full-length human RORγt; Conditions B or C, marked ***: footnote not given)
C[C@H]1CCCN1C(=O)c1nc(C(=O)N[C@@H]2CCOC2)sc1-c1cnc(NC(C)(C)C)cc1C(F)(F)F [Example 373, 5-[6-(tert-Butylamino)-4-(trifluoromethyl)-3-pyridyl]-4-[(2S)-2-methylpyrrolidine-1-carbonyl]-N-[(3R)-tetrahydrofuran-3-yl]thiazole-2-carboxamide] | 122 | 4.6 | 1.9 |  |  |  |  | 
C[C@H]1CCCN1C(=O)c1nc(C(=O)NC2CS(=O)(=O)C2)sc1-c1cnc(NC2CCCC2)cc1C(F)F [Example 61, (S)-5-(6-(Cyclopentylamino)-4-(difluoromethyl)pyridin-3-yl)-N-(1,1-dioxidothietan-3-yl)-4-(2-methylpyrrolidine-1-carbonyl)thiazole-2-carboxamide] |  |  | 7 | 103* % | 13 |  |  | 
C[C@H](Nc1cc(C(F)F)c(-c2sc(C(=O)N[C@H]3CC[C@H](O)C3)nc2C(=O)N2CCC[C@@H]2C)cn1)C(F)(F)F [Example 288, 5-(4-(Difluoromethyl)-6-(((S)-1,1,1-trifluoropropan-2-yl)amino)pyridin-3-yl)-N-((1S,3S)-3-hydroxycyclopentyl)-4-((S)-2-methylpyrrolidine-1-carbonyl)thiazole-2-carboxamide] | 103 | 29 | 4.4 |  |  |  |  | 
C[C@H]1CCCN1C(=O)c1nc(C(=O)N2CC3(COC3)C2)sc1-c1cnc(NC(C)(C)C)cc1C(F)(F)F [Example 368, [5-[6-(tert-Butylamino)-4-(trifluoromethyl)-3-pyridyl]-2-(6-oxa-2-azaspiro[3.3]heptane-2-carbonyl)thiazol-4-yl]-[(2S)-2-methylpyrrolidin-1-yl]methanone] | 110 | 7.5 | 1.7 |  |  |  |  | 
C[C@H](Nc1cc(C(F)F)c(-c2sc(C(=O)N[C@H]3COC[C@@H]3O)nc2C(=O)N2CC(F)(F)C[C@@H]2C)cn1)C(F)(F)F [Example 190] |  |  | 3.8 | 104* % | 34 |  |  | 
CC(C)(O)CNC(=O)c1nc(C(=O)N2CCC(F)CC2)c(-c2cnc(NC3CCCCC3(F)F)cc2C(F)(F)F)s1 (stereo not drawn) [Example 26, 5-(6-((2,2-Difluorocyclohexyl)amino)-4-(trifluoromethyl)pyridin-3-yl)-4-(4-fluoropiperidine-1-carbonyl)-N-(2-hydroxy-2-methylpropyl)thiazole-2-carboxamide] |  |  | 9.5 |  | 37 | 111 |  | 
C[C@H]1CCCN1C(=O)c1nc(C(=O)NCC2(O)CC2)sc1-c1cnc(NC2CCCC2)cc1C(F)F [Example 2, (S)-5-(6-(Cyclopentylamino)-4-(difluoromethyl)pyridin-3-yl)-N-((1-hydroxycyclopropyl)methyl)-4-(2-methylpyrrolidine-1-carbonyl)thiazole-2-carboxamide] |  |  | 40 | 95* % | 77 |  |  | 
CC[C@H](Nc1cc(C(F)F)c(-c2sc(C(=O)NC3CCS(=O)(=O)CC3)nc2C(=O)N2C3CCC2CC3)cn1)C(F)(F)F [Example 154] |  |  | 1 | 99* % | 98 |  |  | 
C[C@H]1CCCCN1C(=O)c1nc(C(=O)NCC(C)(C)O)sc1-c1cnc(N[C@@H]2CCCCC2(F)F)cc1C(F)(F)F (relative stereo) [Example 31, 5-(6-(((R*)-2,2-Difluorocyclohexyl)amino)-4-(trifluoromethyl)pyridin-3-yl)-N-(2-hydroxy-2-methylpropyl)-4-((S)-2-methylpiperidine-1-carbonyl)thiazole-2-carboxamide] |  |  | 0.15 |  | 4.5 | 111 |  | 
C[C@H]1CCCN1C(=O)c1nc(C(=O)N[C@H]2C[C@H](O)C2)sc1-c1cnc(N[C@@H](C2CC2)C(F)(F)F)cc1C(F)F [Example 310, 5-(6-(((S)-1-Cyclopropyl-2,2,2-trifluoroethyl)amino)-4-(difluoromethyl)pyridin-3-yl)-N-((1r,3S)-3-hydroxycyclobutyl)-4-((S)-2-methylpyrrolidine-1-carbonyl)thiazole-2-carboxamide] | 92 | 36 | 8.7 |  |  |  |  | 
C[C@H]1CC(F)(F)CN1C(=O)c1nc(C(=O)NCC(C)(C)O)sc1-c1cnc(NCC2(C(F)(F)F)CC2)cc1C(F)(F)F [Example 126, (S)-4-(4,4-Difluoro-2-methylpyrrolidine-1-carbonyl)-N-(2-hydroxy-2-methylpropyl)-5-(4-(trifluoromethyl)-6-(((1-(trifluoromethyl)cyclopropyl)methyl)amino)pyridin-3-yl)thiazole-2-carboxamide] |  |  | 0.85 | 98* % | 69 |  |  | 
C[C@H](Nc1cc(C(F)F)c(-c2sc(C(=O)NC3CCS(=O)(=O)CC3)nc2C(=O)N2CC(F)(F)C[C@@H]2C)cn1)C(F)(F)F [Example 421, 4-[(2S)-4,4-Difluoro-2-methyl-pyrrolidine-1-carbonyl]-5-[4-(difluoromethyl)-6-[[(1S)-2,2,2-trifluoro-1-methyl-ethyl]amino]-3-pyridyl]-N-(1,1-dioxothian-4-yl)thiazole-2-carboxamide] |  | 64 | 1 |  |  |  | 98 | 
C[C@H]1CC(F)(F)CN1C(=O)c1nc(C(=O)N[C@H]2C[C@H](O)C2)sc1-c1cnc(NC2(C)CCC2)cc1C(F)F [Example 327, 4-((S)-4,4-Difluoro-2-methylpyrrolidine-1-carbonyl)-5-(4-(difluoromethyl)-6-((1-methylcyclobutyl)amino)pyridin-3-yl)-N-((1r,3S)-3-hydroxycyclobutyl)thiazole-2-carboxamide] | 93 | 11 | 2 |  |  |  |  | 
CC[C@H](Nc1cc(C(F)F)c(-c2sc(C(=O)N[C@@H](C)C(C)(C)O)nc2C(=O)N2CCCC[C@@H]2C)cn1)C(F)(F)F [Example 247, 5-[4-(Difluoromethyl)-6-[[(1S)-1-(trifluoromethyl)propyl]amino]-3-pyridyl]-N-[(1S)-2-hydroxy-1,2-dimethyl-propyl]-4-[(2S)-2-methylpiperidine-1-carbonyl]thiazole-2-carboxamide] |  |  | 0.28 | 100* % | 23 |  |  | 
C[C@H](NC(=O)c1nc(C(=O)N2CC(F)(F)C[C@@H]2C)c(-c2cnc(NC3(C)CCC3)cc2C(F)(F)F)s1)C(C)(C)O [Example 195, 4-((S)-4,4-Difluoro-2-methylpyrrolidine-1-carbonyl)-N—((S)-3-hydroxy-3-methylbutan-2-yl)-5-(6-((1-methylcyclobutyl)amino)-4-(trifluoromethyl)pyridine-3-yl)thiazole-2-carboxamide] |  |  | 0.43 | 85* % | 33 |  |  | 
CC[C@H](Nc1cc(C(F)F)c(-c2sc(C(=O)N[C@H]3COC[C@H]3O)nc2C(=O)N2CCC[C@@H]2C)cn1)C(F)(F)F (single isomer, unassigned) [Example 165, 5-(4-(Difluoromethyl)-6-(((S)-1,1,1-trifluorobutan-2-yl)amino)pyridin-3-yl)-N-((3S*,4S*)-4-hydroxytetrahydrofuran-3-yl)-4-((S)-2-methylpyrrolidine-1-carbonyl)thiazole-2-carboxamide] |  |  | 3.1 | 98* % | 40 |  |  | 
CC[C@H](Nc1cc(C(F)F)c(-c2sc(C(=O)N[C@H](C)C(C)(C)O)nc2C(=O)N2CCC[C@@H]2C)cn1)C(F)(F)F [Example 267, 5-[4-(Difluoromethyl)-6-[[(1S)-1-(trifluoromethyl)propyl]amino]-3-pyridyl]-N-[(1R)-2-hydroxy-1,2-dimethyl-propyl]-4-[(2S)-2-methylpyrrolidine-1-carbonyl]thiazole-2-carboxamide] | 102 | 47 | 3.3 |  |  |  |  | 
C[C@H](Nc1cc(C(F)(F)F)c(-c2sc(C(=O)NCC(C)(C)O)nc2C(=O)N2C3CCC2CC3)cn1)C1CCC1 (stereo in doubt) [Example 171, 4-((1s,4s)-7-Azabicyclo[2.2[1]heptane-7-carbonyl)-5-(6-(((S*)-1-cyclobutylethyl)amino)-4-(trifluoromethyl)pyridine-3-yl)-N-(2-hydroxy-2-methylpropyl)thiazole-2-carboxamide] |  |  | 4 | 108* % | 16 |  |  | 
CC[C@H](Nc1cc(C(F)F)c(-c2sc(C(=O)N[C@@H](C)C(C)(C)O)nc2C(=O)N2CC(F)(F)C[C@@H]2C)cn1)C(F)(F)F [Example 246, 4-[(2S)-4,4-Difluoro-2-methyl-pyrrolidine-1-carbonyl]-5-[4-(difluoromethyl)-6-[[(1S)-1-(trifluoromethyl)propyl]amino]-3-pyridyl]-N-[(1S)-2-hydroxy-1,2-dimethyl-propyl]thiazole-2-carboxamide] |  |  | 1.3 |  | 11 |  |  | 112*** %
